Data taken from patent US9440941B2, “Substituted chroman-6-yloxy-cycloalkanes and their use as pharmaceuticals” (SANOFI, priority 2013, dated 2016).
Structures can show the parent of a compound that is named as a salt.

What follows are compounds tested against T1, human NCX1 (Homo sapiens, UniProt P32418) (assay: Inhibition of Ca2+ influx into cells (NCX1 reverse mode), FLIPR Fluo-4 assay). Conditions: at 10 μM; NCX1 reverse mode; IC50 value not determined; read-out: NCX1rv inhibition in % at 10 μM.
T1 construct: expressed in transfected cells
Format: cell-based
Description: The sodium/calcium exchanger NCX1 can transport calcium ions and sodium ions through the cell membrane. The transport is an exchange of Ca^2+ and Na^+ in two directions depending on membrane potential and ion gradients. At the first direction, named “forward mode” or “calcium export mode”, Ca^2+ is transported out of the cell and Na^+ is transported into the cell. At the other direction, named “reverse mode” or “calcium import mode”, the transport directions are vice versa. The effect of the compounds of the invention on NCX1 was determined in CHO cells stably expressing human NCX1 (gene symbol SLC8A1; cf. WO 2009/115238). The assay is based on the monitoring of intracellular Ca^2+ concentrations using a calcium-sensitive fluorescence dye which is detected by means of a FLIPR device (Fluorimetric Imaging Plate Reader, Molecular Devices).
Assay Technology—Reverse Mode
The assay is based on the monitoring of intracellular Ca^2+ concentrations using the calcium-sensitive dye Fluo-4. CHO cells expressing NCX1 were loaded with the dye by means of the acetoxymethyl ester Fluo-4 AM (Invitrogen, F14202), which is cleaved intracellularly by esterase activity to yield the charged species of free Fluo-4. After an preincubation period with the test compound, Gramicidine (Sigma, G5002) was added. Gramicidine is an ionophor for Na^+ ions mediating an increase of intracellular Na^+ ions. Consequently, intracellular Na^+ ions are exchanged against extracellular Ca^2+ ions (Ca^2+ influx, reverse mode). The intracellular elevation of Ca^2+ ions was detected by measuring the fluorescence of Fluo-4 at a wavelength of 520 nm by a FLIPR device.
Briefly, for the reverse mode transport assay 18000 cells per well were seeded into a 96 well microplate (Corning COSTAR 3904) and incubated overnight in culture medium (1× Nut Mix F12 (Ham) (Gibco, 21765-029); 10% (v/v) fetal calf serum (PAA Gold, A15-649); 450 μg/ml Geneticin (Gibco, 10131-027)). A total volume of 100 μl medium per well was used. For the preparation of the FLIPR assay, the culture medium was removed from the plates and 100 μl of dye solution (2 μM Fluo-4 AM; 0.02% (v/v) Pluronic F-127 (20%, Invitrogen, P3000MP); 0.1% (v/v) bovine albumin solution (30% (v/v), Sigma, A9205) in assay buffer (133.8 mM NaCl (Sigma, S5886); 4.7 mM KCl (Sigma, P3911); 1.25 mM MgCl2 (Merck, 1.05833.0250); 3.5 mM CaCl2 (Merck, 1.02083.0250); 5 mM glucose (Sigma, G7021); 10 mM Hepes (Sigma, H4034); 0.01% (v/v) Pluronic F-127 (5%, Sigma, P2443); 2.5 mM Probenecid (Maybridge, SB00915EB); pH 7.4)) were added into each well. The plates were incubated in the dark at room temperature for 80 min. After the incubation period, the dye solution was removed and the wells were washed with 100 μl of assay buffer. Then 80 μl of a solution of the test compound in assay buffer in different concentrations were added into the wells. The plates were incubated at 16° C. for 45 min. Meanwhile a 60 μM solution of Gramicidine in assay buffer (4° C.) was prepared and stored in the wells of a 96 well microplate (96 well microplate, polypropylene, U-shape (Greiner Bio-One, 650201)) at 4° C. until measurement was started. The fluorescence monitoring was performed at 240 measuring points with measurement intervals of 2 sec. After the fifth measuring point, 40 μl of the Gramicidine solution were added to each well of the assay plates to give a final Gramicidine concentration of 20 μM. For the determination of the IC50 values the minimal fluorescence value was subtracted from the maximal fluorescence value for all measuring points. The calculation of the IC50 values via the percentage inhibitions of Ca^2+ influx into cells (reverse mode) effected by the test compound was performed in Biost@t Speed 2.0.

Compound | inhibition at 10 µM
COCCCNC1CCC(Oc2ccc3c(c2)CCC(c2ccccc2C)O3)CC1 (stereo not shown) [compound 193] | 99%
Cc1ccccc1C1CCc2cc(OC3CCC(NCC4CCCO4)CC3)ccc2O1 (stereo not shown) [compound 187] | 99%

Same assay, conditions: inhibition of NCX1 in reverse mode (Ca2+ influx into cells); read-out: NCX1rv IC50

Compound | IC50
CNC(=O)CNC(=O)C1CCC(Oc2ccc3c(c2)CCC(c2cccc(F)c2C)O3)CC1 (stereo not shown) [compound 281] | 500 nM
CCn1nccc1CNC(=O)C1CCC(Oc2ccc3c(c2)CCC(c2ccccc2)O3)CC1 (single isomer, unassigned; stereoisomer 1) [compound 93, N-(2-Ethyl-2H-pyrazol-3-ylmethyl)-[cis-4-(2-phenylchroman-6-yloxy)]-cyclohexanecarboxamide, stereoisomer 1 (2)] | 300 nM
Fc1ccccc1C1CCc2cc(OC3CCC(NCC4CCCO4)CC3)ccc2O1 (stereo not shown) [compound 216] | 1700 nM
Cc1cccc(C)c1C1CCc2cc(O[C@H]3CC[C@H](N)CC3)ccc2O1 (relative stereo) [compound 168, hydrochloride] | 4000 nM
O=C(NCCO)C1CCC(Oc2ccc3c(c2Cl)CCC(c2ccccc2)O3)CC1 (stereo not shown) [compound 291] | 1100 nM
N-(2-tert-Butoxyethyl)-4-(2-phenylchroman-6-yloxy)-cyclohexylamine [compound 135] | 800 nM
Cc1cc(CN(Cc2cc(C)n(C)n2)[C@H]2CC[C@H](Oc3ccc4c(c3)CCC(c3ccccc3)O4)CC2)nn1C (stereo partly drawn) [compound 87, N,N-Bis(1,5-dimethylpyrazol-3-ylmethyl)-[trans-4-(2-phenylchroman-6-yloxy)]-cyclohexylamine] | 1300 nM
Cc1cc(C)n(CC(=O)N[C@H]2CC[C@H](Oc3ccc4c(c3)CCC(c3ccccc3)O4)CC2)n1 (relative stereo) [compound 41] | 300 nM
O=C(N[C@H]1CC[C@H](Oc2ccc3c(c2)CCC(c2ccccc2)O3)CC1)C1CC1 (relative stereo) [compound 26] | 100 nM
CC(C)(C)CNC1CCC(Oc2ccc3c(c2)CCC(c2ccccc2)O3)CC1 (stereo not shown) [compound 161, N-(2,2-Dimethylpropyl)-4-(2-phenylchroman-6-yloxy)-cyclohexylamine] | 1300 nM
OCCNC1CCC(Oc2ccc3c(c2)CCC(c2ccccc2)O3)CC1 (stereo not shown) [compound 15] | 200 nM
Cc1cc2c(cc1OC1CCC(C(=O)NCCO)CC1)CCC(c1ccccc1C)O2 (stereo not shown) [compound 288] | 1900 nM
Cc1nn(C)c(C)c1CCC(=O)N[C@H]1CC[C@H](Oc2ccc3c(c2)CCC(c2ccccc2)O3)CC1 (relative stereo) [compound 36] | 300 nM
Cc1ccc(F)cc1C1CCc2cc(O[C@H]3CC[C@H](NC(=O)CN)CC3)ccc2O1 (relative stereo) [compound 186] | 400 nM
CNS(=O)(=O)CCNC(=O)C1CCC(Oc2ccc3c(c2)CCC(c2cccc(F)c2C)O3)CC1 (stereo not shown) [compound 275] | 400 nM
CCn1nccc1CNC(=O)C1CCC(Oc2ccc3c(c2)CCC(c2ccccc2)O3)CC1 (stereo not shown) [compound 14] | 400 nM
O=C(CCn1cncn1)N[C@H]1CC[C@H](Oc2ccc3c(c2)CCC(c2ccccc2F)O3)CC1 (relative stereo) [compound 237] | 200 nM
c1ccc(C2CCc3cc(O[C@H]4CC[C@H](N(Cc5ccoc5)Cc5ccoc5)CC4)ccc3O2)cc1 (stereo partly drawn) [compound 85, N,N-Bis(furan-3-ylmethyl)-[trans-4-(2-phenylchroman-6-yloxy)]-cyclohexylamine] | 800 nM
CCCCNC1CCC(Oc2ccc3c(c2)CCC(c2ccccc2)O3)CC1 (stereo not shown) [compound 108] | 600 nM
CCn1nccc1CNC(=O)C1CCC(Oc2ccc3c(c2)CC(C)C(c2ccccc2)O3)CC1 (stereo not shown) [compound 297] | 500 nM
NCC(=O)N[C@H]1CC[C@H](Oc2ccc3c(c2)CC[C@H](c2ccccc2)O3)CC1 [compound 160, hydrochloride] | 1100 nM
Cc1nc(CNC(=O)[C@H]2CC[C@@H](Oc3ccc4c(c3)CCC(c3ccccc3)O4)CC2)no1 (single isomer, unassigned; stereoisomer 1) [compound 95, N-(5-Methyl-[1,2,4]oxadiazol-3-ylmethyl)-[4-cis-(2-phenylchroman-6-yloxy)]-cyclohexanecarboxamide, stereoisomer 1 (2)] | 200 nM

Compound | IC50
CC(C)SCCNC1CCC(Oc2ccc3c(c2)CCC(c2ccccc2F)O3)CC1 (stereo not shown) [compound 232] | 5900 nM
CC(CN(C)C)NC1CCC(Oc2ccc3c(c2)CCC(c2ccccc2)O3)CC1 (stereo not shown) [compound 128] | 1700 nM
CC(C)CCCNC1CCC(Oc2ccc3c(c2)CCC(c2ccccc2)O3)CC1 (stereo not shown) [compound 107] | 800 nM
COc1c(F)cccc1C1CCc2cc(OC3CCC(C(=O)NCCO)CC3)ccc2O1 (stereo not shown) [compound 302] | 400 nM
N-Cyclopentyl-4-(2-phenylchroman-6-yloxy)-cyclohexylamine [compound 143] | 800 nM
N-Cyclobutyl-4-(2-phenylchroman-6-yloxy)-cyclohexylamine [compound 142] | 600 nM
Fc1ccccc1C1CCc2cc(OC3CCC(NC4CCOCC4)CC3)ccc2O1 (stereo not shown) [compound 231] | 4100 nM
N[C@H]1CC[C@H](Oc2ccc3c(c2)CCC(c2ccccc2)O3)CC1 (stereo partly drawn) [compound 5, trans-4-(2-Phenylchroman-6-yloxy)cyclohexylamine] | 300 nM
CC1(O)CCC(Oc2ccc3c(c2)CCC(c2ccccc2)O3)CC1 (stereo not shown) [compound 163, 1-Methyl-4-(2-phenylchroman-6-yloxy)-cyclohexanol] | 600 nM
N-(3-Methylbutyl)-4-(2-phenylchroman-6-yloxy)-cyclohexylamine [compound 130] | 800 nM
Cc1n[nH]c(C)c1CC(=O)N[C@H]1CC[C@H](Oc2ccc3c(c2)CCC(c2ccccc2)O3)CC1 (relative stereo) [compound 43] | 100 nM
Cc1n[nH]c(C)c1CCC(=O)N[C@H]1CC[C@H](Oc2ccc3c(c2)CCC(c2ccccc2F)O3)CC1 (relative stereo) [compound 234] | 100 nM
N-(1,3-Dimethylbutyl)-4-(2-phenylchroman-6-yloxy)-cyclohexylamine [compound 141] | 1000 nM
COc1cccc(C2CCc3cc(OC4CCC(C(=O)NCc5ccno5)CC4)ccc3O2)c1F (stereo not shown) [compound 295] | 1100 nM
Cc1c(F)cccc1C1CCc2cc(OC3CCC(C(=O)NCCNS(C)(=O)=O)CC3)ccc2O1 (stereo not shown) [compound 277] | 300 nM
Cc1nc(CNC2CCC(Oc3ccc4c(c3)CCC(c3ccccc3)O4)CC2)no1 (stereo not shown) [compound 97] | 500 nM
COC(=O)CNC(=O)C1CCC(Oc2ccc3c(c2)CCC(c2ccccc2)O3)CC1 (single isomer, unassigned; stereoisomer 2) [compound 92, Methyl 2-[[cis-4-[2-phenylchroman-6-yloxy]cyclohexanecarbonyl]amino]acetate,stereoisomer 2 (2)] | 100 nM
CCCN(CCC)[C@H]1CC[C@H](Oc2ccc3c(c2)CC[C@@H](c2ccccc2)O3)CC1 [compound 34] | 1300 nM
CS(=O)(=O)CCC(=O)N[C@H]1CC[C@H](Oc2ccc3c(c2)CCC(c2ccccc2F)O3)CC1 (relative stereo) [compound 259] | 100 nM
CCC(C)CCNC1CCC(Oc2ccc3c(c2)CCC(c2ccccc2)O3)CC1 (stereo not shown) [compound 114] | 700 nM
Cc1c(F)cccc1C1CCc2cc(OC3CCC(C(=O)NCCO)CC3)ccc2O1 (stereo not shown) [compound 262] | 200 nM
Cc1cc(CC(=O)N[C@H]2CC[C@H](Oc3ccc4c(c3)CCC(c3ccccc3)O4)CC2)on1 (relative stereo) [compound 25] | 200 nM
